Data taken from EP4667467A1, “PROTAC DEGRADERS OF MLLT1 AND/OR MLLT3” (Dark Blue Therapeutics Ltd, priority 2024, dated 2025).

Molecular target: T1, MLLT1 (Homo sapiens, UniProt Q03111)
T1 construct: endogenous in cells; host or cells: MV4-11 (ATCC CRL-9591)
T1 sequence (Q03111 1-559): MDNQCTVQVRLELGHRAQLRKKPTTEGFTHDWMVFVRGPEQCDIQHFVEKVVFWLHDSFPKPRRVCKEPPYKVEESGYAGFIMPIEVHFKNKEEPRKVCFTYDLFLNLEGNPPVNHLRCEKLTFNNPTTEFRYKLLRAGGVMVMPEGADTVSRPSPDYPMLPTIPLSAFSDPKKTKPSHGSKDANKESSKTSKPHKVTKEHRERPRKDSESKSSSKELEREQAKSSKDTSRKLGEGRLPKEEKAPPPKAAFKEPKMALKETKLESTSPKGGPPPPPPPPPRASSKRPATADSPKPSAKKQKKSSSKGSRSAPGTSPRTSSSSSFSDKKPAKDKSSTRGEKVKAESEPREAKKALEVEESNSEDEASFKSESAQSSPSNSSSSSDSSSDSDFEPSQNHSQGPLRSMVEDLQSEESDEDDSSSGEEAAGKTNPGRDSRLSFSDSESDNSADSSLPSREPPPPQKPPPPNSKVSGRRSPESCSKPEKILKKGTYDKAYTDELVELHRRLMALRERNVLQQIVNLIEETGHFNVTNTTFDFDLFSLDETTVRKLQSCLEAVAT
Assay: MLLT1 Degradation Assay (JESS automated chemiluminescent detection, MV4-11 cells)
Type: cell-based
Conditions: 24h, with respect to DMSO control; for MLLT1 % Degradation @ 0.01 µM: 0.01 µM (10 nM) test compound; for MLLT1 % Degradation @ 0.1 µM: 0.1 µM (100 nM) test compound; for MLLT 1 % Degradation @ 1 µM: 1 µM (1000 nM) test compound
Protocol: MLLT1 degradation efficacy of compounds were tested in an automated chemiluminescent detection system (JESS, Cat# 004-650). […] 10 mM DMSO stocks were prepared, and cells were treated with three concentrations of test compounds viz. 1000, 100 and 10 nM at a final DMSO concentration of 0.1% and incubated for 24h at 37°C, 5% CO2. […] Post run, data were analysed using "Compass for SW" software for chemiluminescent detection. The peak area for each band was used for the calculation of MLLT1 degradation with respect to DMSO control. Data is shown as "MLLT1 % degradation".

CN1CCC[C@@H]1c1cc2cnc(NC(=O)c3cccc(C4CCN(c5cccc6c5C(=O)N(C5CCC(=O)NC5=O)C6=O)CC4)c3)cc2[nH]1 (stereo partly drawn) [Example 14, 3-(1-(2-(2,6-dioxopiperidin-3-yl)-1,3-dioxoisoindolin-4-yl)piperidin-4-yl)-N-(2-((R)-1-methylpyrrolidin-2-yl)-1H-pyrrolo[3,2-c]pyridin-6-yl)benzamide]
MLLT1 % Degradation @ 0.01 µM: B (Category B: 50% ≤ B < 75% degradation) | MLLT1 % Degradation @ 0.1 µM: A (Category A: A ≥ 75% degradation) | MLLT 1 % Degradation @ 1 µM: A (Category A: A ≥ 75% degradation)

CN1CCC[C@@H]1c1cc2cnc(NC(=O)c3ccc(OCC#Cc4cccc5c4n(C)c(=O)n5C4CCC(=O)NC4=O)cc3)cc2[nH]1 (stereo partly drawn) [Example 66, 4-((3-(1-(2,6-dioxopiperidin-3-yl)-3-methyl-2-oxo-2,3-dihydro-1H-benzo[d]imidazol-4-yl)prop-2-yn-1-yl)oxy)-N-(2-((R)-1-methylpyrrolidin-2-yl)-1H-pyrrolo[3,2-c]pyridin-6-yl)benzamide]
MLLT1 % Degradation @ 0.01 µM: A (Category A: A ≥ 75% degradation) | MLLT1 % Degradation @ 0.1 µM: A (Category A: A ≥ 75% degradation) | MLLT 1 % Degradation @ 1 µM: A (Category A: A ≥ 75% degradation)

CN1CCC[C@@H]1c1cc2cnc(NC(=O)c3ccc(-c4cnn(CCCC5CCN(c6cccc7c6C(=O)N(C6CCC(=O)NC6=O)C7=O)CC5)c4)cc3)cc2[nH]1 (stereo partly drawn) [Example 34, 4-[1-(3-{1-[2-(2,6-dioxopiperidin-3-yl)-1,3-dioxoisoindol-4-yl]piperidin-4-yl}propyl)pyrazol-4-yl]-N-{2-[(2R)-1-methylpyrrolidin-2-yl]-1H-pyrrolo[3,2-c]pyridin-6-yl}benzamide]
MLLT1 % Degradation @ 0.1 µM: A (Category A: A ≥ 75% degradation) | MLLT 1 % Degradation @ 1 µM: A (Category A: A ≥ 75% degradation)

CN1CCC[C@@H]1c1[nH]c2cc(NC(=O)c3ccc(CCCCC#Cc4cccc5c4CN(C4CCC(=O)NC4=O)C5=O)nc3)ncc2c1Cl (stereo partly drawn) [Example 71, N-(3-chloro-2-((R)-1-methylpyrrolidin-2-yl)-1H-pyrrolo[3,2-c]pyridin-6-yl)-6-(6-(2-(2,6-dioxopiperidin-3-yl)-1-oxoisoindolin-4-yl)hex-5-yn-1-yl) nicotinamide]
MLLT1 % Degradation @ 0.01 µM: A (Category A: A ≥ 75% degradation) | MLLT1 % Degradation @ 0.1 µM: A (Category A: A ≥ 75% degradation) | MLLT 1 % Degradation @ 1 µM: B (Category B: 50% ≤ B < 75% degradation)

CN1CCC[C@@H]1c1cc2cnc(NC(=O)c3ccc(N4CCC(C#Cc5cccc6c5CN(C5CCC(=O)NC5=O)C6=O)CC4)nc3)cc2[nH]1 (stereo partly drawn) [Example 17, 6-(4-((2-(2,6-dioxopiperidin-3-yl)-1-oxoisoindolin-4-yl)ethynyl)piperidin-1-yl)-N-(2-((R)-1-methylpyrrolidin-2-yl)-1H-pyrrolo[3,2-c]pyridin-6-yl)nicotinamide]
MLLT1 % Degradation @ 0.01 µM: A (Category A: A ≥ 75% degradation) | MLLT1 % Degradation @ 0.1 µM: A (Category A: A ≥ 75% degradation) | MLLT 1 % Degradation @ 1 µM: A (Category A: A ≥ 75% degradation)

CN1CCC[C@@H]1c1cc2cnc(NC(=O)c3ccc(CCCCC#Cc4cccc(N5CCC(=O)NC5=O)n4)cc3)cc2[nH]1 [Example 9, (R)-4-(6-(6-(2,4-dioxotetrahydropyrimidin-1(2H)-yl)pyridin-2-yl)hex-5-yn-1-yl)-N-(2-(1-methylpyrrolidin-2-yl)-1H-pyrrolo[3,2-c]pyridin-6-yl)benzamide]
MLLT1 % Degradation @ 0.01 µM: A (Category A: A ≥ 75% degradation) | MLLT1 % Degradation @ 0.1 µM: A (Category A: A ≥ 75% degradation) | MLLT 1 % Degradation @ 1 µM: A (Category A: A ≥ 75% degradation)

CN1CCC[C@@H]1c1cc2cnc(NC(=O)c3ccc(CCC#Cc4cccc5c4CN(C4CCC(=O)NC4=O)C5=O)cc3F)cc2[nH]1 (stereo partly drawn) [Example 54, 4-(4-(2-(2,6-dioxopiperidin-3-yl)-1-oxoisoindolin-4-yl)but-3-yn-1-yl)-2-fluoro-N-(2-((R)-1-methylpyrrolidin-2-yl)-1H-pyrrolo [3,2-c]pyridin-6-yl) benzamide]
MLLT1 % Degradation @ 0.01 µM: A (Category A: A ≥ 75% degradation) | MLLT1 % Degradation @ 0.1 µM: A (Category A: A ≥ 75% degradation) | MLLT 1 % Degradation @ 1 µM: B (Category B: 50% ≤ B < 75% degradation)

CN1CCC[C@@H]1c1cc2cnc(NC(=O)c3cnn(CCCC4CCN(c5cccc6c5C(=O)N(C5CCC(=O)NC5=O)C6=O)CC4)c3)cc2[nH]1 (stereo partly drawn) [Example 38, 1-(3-{1-[2-(2,6-dioxopiperidin-3-yl)-1,3-dioxoisoindol-4-yl]piperidin-4-yl}propyl)-N-{2-[(2R)-1-methylpyrrolidin-2-yl]-1H-pyrrolo[3,2-c]pyridin-6-yl}pyrazole-4-carboxamide]
MLLT1 % Degradation @ 0.01 µM: D (Category D: D < 25% degradation) | MLLT1 % Degradation @ 0.1 µM: D (Category D: D < 25% degradation) | MLLT 1 % Degradation @ 1 µM: C (Category C: 25% ≤ C < 50% degradation)

CN1CCC[C@@H]1c1cc2cnc(NC(=O)c3ccc(OCCC#Cc4cccc5c4CN(C4CCC(=O)NC4=O)C5=O)cc3)cc2[nH]1 (stereo partly drawn) [Example 19, 4-((4-(2-(2,6-dioxopiperidin-3-yl)-1-oxoisoindolin-4-yl)but-3-yn-1-yl)oxy)-N-(2-((R)-1-methylpyrrolidin-2-yl)-1H-pyrrolo[3,2-c]pyridin-6-yl)benzamide]
MLLT1 % Degradation @ 0.01 µM: B (Category B: 50% ≤ B < 75% degradation) | MLLT1 % Degradation @ 0.1 µM: A (Category A: A ≥ 75% degradation) | MLLT 1 % Degradation @ 1 µM: A (Category A: A ≥ 75% degradation)

CN1CCC[C@@H]1c1cc2cnc(NC(=O)CCCCCCCCNc3cccc4c3C(=O)N(C3CCC(=O)NC3=O)C4=O)cc2[nH]1 (stereo partly drawn) [Example 30, 9-{[2-(2,6-dioxopiperidin-3-yl)-1,3-dioxoisoindol-4-yl]amino}-N-{2-[(2R)-1-methylpyrrolidin-2-yl]-1H-pyrrolo[3,2-c]pyridin-6-yl}nonanamide]
MLLT1 % Degradation @ 0.01 µM: C (Category C: 25% ≤ C < 50% degradation) | MLLT1 % Degradation @ 0.1 µM: B (Category B: 50% ≤ B < 75% degradation) | MLLT 1 % Degradation @ 1 µM: A (Category A: A ≥ 75% degradation)

C[C@@H](C#Cc1cccc2c1CN(C1CCC(=O)NC1=O)C2=O)Oc1ccc(C(=O)Nc2cc3[nH]c([C@H]4CCCN4C)cc3cn2)cc1 (stereo partly drawn) [Example 24, 4-(((2S)-4-(2-(2,6-dioxopiperidin-3-yl)-1-oxoisoindolin-4-yl)but-3-yn-2-yl)oxy)-N-(2-((R)-1-methylpyrrolidin-2-yl)-1H-pyrrolo[3,2-c]pyridin-6-yl)benzamide]
MLLT1 % Degradation @ 0.01 µM: A (Category A: A ≥ 75% degradation) | MLLT1 % Degradation @ 0.1 µM: A (Category A: A ≥ 75% degradation) | MLLT 1 % Degradation @ 1 µM: A (Category A: A ≥ 75% degradation)
